Measurements as given in patent publication US10526287B2, “LSD1 inhibitors and uses thereof” (Constellation Pharmaceuticals, Inc., priority 2015, dated 2020).
Where a name gives a salt, the structure may show the parent alone.

Each molecule was assayed against LSD1 (Homo sapiens, UniProt O60341) (assay: Biochemical assay for LSD1 activity (LSD1 demethylase TR-FRET)). Details: not given.

SMILES	IC50
CC(=Cc1ccc(C#N)cc1)C1CC1N (stereo not shown) [Compound 129, 4-(2-(2-aminocyclopropyl)prop-1-en-1-yl)benzonitrile Hydrochloride]	> 10000 nM

Same assay, conditions: Table 5; biotinylated H3K4me1 peptide, 50 minutes at room temperature, TR-FRET; read-out: LSD1_Pep_TR-FRET_1.0 (IC50 T50)

SMILES	IC50
O=C(O)c1ccc(CN2CCC(CNC3CC3/C=C/c3ccccc3)CC2)cc1 (stereo not shown) [Compound 101, (E)-4-((4-(((2-styrylcyclopropypamino)methyl)piperidin-1-yl)methyl)benzoic Acid Dihydrochloride]	100 to 1000 nM
O=C(O)CCN1CCC(CNC2CC2/C=C/c2ccccc2)CC1 (stereo not shown) [Compound 105, (E)-3-(4-(((2-styrylcyclopropyl)amino)methyl)piperidin-1-yl)propanoic acid]	100 to 1000 nM
C(=C\C1CC1NCC1CCN(Cc2ccccc2)CC1)/c1ccccc1 (stereo not shown) [Compound 106]	100 to 1000 nM
O=C(O)CN1CCC(CNC2CC2/C=C/c2ccccc2)CC1 (stereo not shown) [Compound 111, (E)-3-(4-(((2-styrylcyclopropyl)amino)methyl)piperidin-1-yl)acetic acid]	< 100 nM
CC1(N)CC1/C=C/c1ccccc1 (stereo not shown) [Compound 112, 1-methyl-2-((E)-styryl)cyclopropanamine]	100 to 1000 nM
CCS(=O)(=O)CCN1CCC(CNC2CC2/C=C/c2ccccc2)CC1 (stereo not shown) [Compound 113]	< 100 nM

Same assay, conditions: Table 6; biotinylated H3K4me1 peptide, 50 minutes at room temperature, TR-FRET; read-out: LSD1_Pep_TR-FRET_1.0 (IC50 T50)

SMILES	IC50
CCC1(NCC2CCNCC2)CC1/C(C)=C/c1ccccc1 (stereo not shown) [Compound 173, 1-ethyl-2-((E)-1-phenylprop-1-en-2-yl)-N-(piperidin-4-ylmethyl)cyclopropanamine Dihydrochloride]	< 100 nM
CCC1(NC2CCNCC2)CC1/C(C)=C/c1ccccc1 (stereo not shown) [Compound 174, bis(trifluoroacetic Acid) Salt]	< 100 nM
Fc1ccccc1/C=C/C1CC1NCC1CCNCC1 (stereo not shown) [Compound 186, (E)-2-(2-fluorostyryl)-N-(piperidin-4-ylmethyl)cyclopropan-1-amine Dihydrochloride]	< 100 nM
COc1ccc(/C=C(\C)[C@@H]2C[C@H]2N)cc1 [compound 130, 2,2,2-trifluoroacetate]	1000 to 10000 nM
C/C(=C\c1ccccc1)[C@@H]1C[C@H]1NC1CCN(Cc2ccc(C(=O)O)cc2)CC1 [compound 192]	100 to 1000 nM

Same assay, conditions: Table 7; biotinylated H3K4me1 peptide, 50 minutes at room temperature, TR-FRET; read-out: LSD1_Pep_TR-FRET_1.0 (IC50 T50)

SMILES	IC50
CC/C(=C\c1ccccc1)[C@@H]1C[C@H]1NC1CC2(C1)CN(Cc1ccc(C(=O)O)cn1)C2 (single isomer, unassigned) [Compound 249, 6-((6-(((1R,2S or 1S,2R)-2-(E)-1-phenylbut-1-en-2-yl)cyclopropyl)amino)-2-azaspiro[3.3]heptan-2-yl)methyl)nicotinic Acid Bis Trifluoroacetate]	< 100 nM
CC/C(=C\c1ccccc1)[C@@H]1C[C@H]1NC1CC2(C1)CN(Cc1ccc(C(=O)O)cc1)C2 (single isomer, unassigned) [Compound 250]	< 100 nM
CC/C(=C\c1ccccc1)[C@@H]1C[C@H]1NC1CC2(C1)CN(Cc1ccc(C(=O)O)nc1)C2 (single isomer, unassigned) [Compound 251]	< 100 nM
CC/C(=C\c1ccccc1)[C@@H]1C[C@H]1NC1CC2(C1)CN(Cc1ccc(-c3nnn[nH]3)cc1)C2 (single isomer, unassigned) [Compound 252]	< 100 nM
CC/C(=C\c1ccccc1)[C@@H]1C[C@H]1NC1CC2(C1)CN(Cc1ccc(C(=O)O)cc1C)C2 (single isomer, unassigned) [Compound 254]	< 100 nM
CC/C(=C\c1ccccc1)[C@@H]1C[C@H]1NC1CC2(C1)CN(Cc1ccc(C(=O)O)c(C)c1)C2 (single isomer, unassigned) [Compound 255]	< 100 nM
CC/C(=C\c1ccccc1)[C@@H]1C[C@H]1NC1CC2(C1)CN(Cc1cnc(C(=O)O)cn1)C2 (single isomer, unassigned) [Compound 256]	< 100 nM
CC/C(=C\c1ccccc1)[C@@H]1C[C@H]1N[C@H]1CC[C@H](NCc2ccc(C(=O)O)nc2)CC1 (single isomer, unassigned) [Compound 260, 5-((((trans)-4-(((1R,2S or 1S,2R)-2-((E)-1-phenylbut-1-en-2-yl)cyclopropyl)amino)cyclohexyl)amino)methyl)picolinic acid bis trifluoroacetate]	< 100 nM
CC/C(=C\c1ccccc1)[C@@H]1C[C@H]1NC1CC2(C1)CN(CCC(=O)O)C2 (single isomer, unassigned) [Compound 266, 3-(6-(((1R,2S or 1S,2R)-2-((E)-1-phenylbut-1-en-2-yl)cyclopropyl)amino)-2-azaspiro[3.3]heptan-2-yl)propanoic Acid (Single Stereoisomer)]	< 100 nM
CC/C(=C\c1ccccc1)[C@@H]1C[C@H]1NC1CC2(C1)CN(CC(N)=O)C2 (single isomer, unassigned) [Compound 268, 2-(6-(((1R,2S or 1S,2R)-2-(E)-1-phenylbut-1-en-2-yl)cyclopropyl)amino)-2-azaspiro[3.3]heptan-2-yl)acetamide Bis Trifluoroacetate (Single Stereoisomer)]	< 100 nM
